“Also recorded” adds a separate entry of the source.
molecular target: T1, AurA (Homo sapiens, UniProt O14965); assay: In-house kinase assay (32P incorporation); assay type: biochemical; details: in-house kinase assays
T1 sequence (O14965 1-403): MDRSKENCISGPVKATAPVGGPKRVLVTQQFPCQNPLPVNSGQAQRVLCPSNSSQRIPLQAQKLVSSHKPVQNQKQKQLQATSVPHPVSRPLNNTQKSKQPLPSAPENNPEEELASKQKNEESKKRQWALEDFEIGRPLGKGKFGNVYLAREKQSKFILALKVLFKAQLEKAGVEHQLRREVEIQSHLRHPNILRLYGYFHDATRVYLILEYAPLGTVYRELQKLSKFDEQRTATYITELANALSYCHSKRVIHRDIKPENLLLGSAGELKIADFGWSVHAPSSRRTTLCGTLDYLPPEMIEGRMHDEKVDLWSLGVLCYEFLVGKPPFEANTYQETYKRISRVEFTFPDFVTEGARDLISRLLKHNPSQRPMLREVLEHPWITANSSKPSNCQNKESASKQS
Description: (§1) Kinase activity was investigated by measuring the incorporation of radioactive phosphate from ATP into appropriate polypeptide substrates. Recombinant protein kinases and kinase complexes were produced or obtained commercially. Assays were performed using 96-well plates and appropriate assay buffers (typically 25 mM β-glycerophosphate, 20 mM MOPS, 5 mM EGTA, 1 mM DTT, 1 mM […], pH 7.4), into which were added 2-4 μg of active enzyme with appropriate substrates. The reactions were initiated by addition of Mg/ATP mix (15 mM MgCl2+100 μM ATP with 30-50 kBq per well of [γ-^32P]-ATP) and mixtures incubated as required at 30° C. Reactions were stopped on ice, followed by filtration through p81 filterplates or GF/C filterplates (Whatman Polyfiltronics, Kent, UK). After washing 3 times with 75 mM aq orthophosphoric acid, plates were dried, scintillant added and incorporated radioactivity measured in a scintillation counter (TopCount, Packard Instruments, Pangbourne, Berks, UK). Compounds for kinase assay were made up as 10 mM stocks in DMSO and diluted into 10% DMSO in assay buffer.

SMILES	IC50 [nM]
CC[C@@H](Nc1nc(NCc2cccnc2)c2ncn(C(C)C)c2n1)C(C)(C)O [Compound 5]	51
CCNc1nc(C)c(-c2ccnc(Nc3ccc(S(C)(=O)=O)cc3)n2)s1 [Compound 10]	> 10000
CCNc1nc(C)c(-c2ccnc(Nc3ccc(CNC(C)=O)cc3)n2)s1 [Compound 9]	94
Cc1c(-c2ccnc(Nc3ccc(N4CCNCC4)cc3)n2)sc(=O)n1C [Compound 7]	> 10000

molecular target: AurB (Homo sapiens, UniProt Q96GD4); assay: In-house kinase assay (32P incorporation); assay type: biochemical; details: in-house kinase assays
Sequence (Q96GD4 whole entry): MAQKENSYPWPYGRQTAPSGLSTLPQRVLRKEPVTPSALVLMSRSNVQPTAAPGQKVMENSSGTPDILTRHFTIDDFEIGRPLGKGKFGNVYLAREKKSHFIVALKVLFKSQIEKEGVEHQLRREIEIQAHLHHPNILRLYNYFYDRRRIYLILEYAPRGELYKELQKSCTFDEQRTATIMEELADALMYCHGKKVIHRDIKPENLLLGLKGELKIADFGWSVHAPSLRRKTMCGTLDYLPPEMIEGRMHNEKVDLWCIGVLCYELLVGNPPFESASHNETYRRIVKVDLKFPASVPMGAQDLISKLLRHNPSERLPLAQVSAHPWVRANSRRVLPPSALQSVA
Description: as §1

SMILES	IC50 [nM]
CC[C@@H](Nc1nc(NCc2cccnc2)c2ncn(C(C)C)c2n1)C(C)(C)O [Compound 5]	23
CCNc1nc(C)c(-c2ccnc(Nc3ccc(S(C)(=O)=O)cc3)n2)s1 [Compound 10]	> 100000
CCNc1nc(C)c(-c2ccnc(Nc3ccc(CNC(C)=O)cc3)n2)s1 [Compound 9]	21
Cc1c(-c2ccnc(Nc3ccc(N4CCNCC4)cc3)n2)sc(=O)n1C [Compound 7]	> 10000

molecular target: CDK1B (Homo sapiens, UniProt P06493); assay: In-house kinase assay (32P incorporation); assay type: biochemical; details: in-house kinase assays
Sequence (P06493 whole entry): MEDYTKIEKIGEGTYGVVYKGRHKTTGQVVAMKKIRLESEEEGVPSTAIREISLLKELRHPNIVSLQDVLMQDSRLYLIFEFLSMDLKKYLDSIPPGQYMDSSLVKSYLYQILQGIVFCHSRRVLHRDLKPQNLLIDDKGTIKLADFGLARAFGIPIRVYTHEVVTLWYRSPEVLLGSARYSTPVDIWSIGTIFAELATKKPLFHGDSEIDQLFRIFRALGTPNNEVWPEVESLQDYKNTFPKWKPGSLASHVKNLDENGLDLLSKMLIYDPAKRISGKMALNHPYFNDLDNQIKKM
Sequence (P14635 whole entry partner): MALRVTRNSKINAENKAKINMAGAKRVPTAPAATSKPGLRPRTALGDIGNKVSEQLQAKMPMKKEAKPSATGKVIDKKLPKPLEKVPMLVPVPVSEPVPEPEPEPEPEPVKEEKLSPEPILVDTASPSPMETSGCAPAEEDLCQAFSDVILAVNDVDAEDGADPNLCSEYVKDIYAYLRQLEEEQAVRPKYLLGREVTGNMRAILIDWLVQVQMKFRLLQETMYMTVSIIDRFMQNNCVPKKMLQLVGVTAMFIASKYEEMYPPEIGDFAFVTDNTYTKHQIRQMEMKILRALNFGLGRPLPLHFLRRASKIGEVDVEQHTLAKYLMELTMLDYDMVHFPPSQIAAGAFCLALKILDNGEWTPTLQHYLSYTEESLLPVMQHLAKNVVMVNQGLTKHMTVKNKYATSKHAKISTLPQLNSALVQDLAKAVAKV
Description: as §1

SMILES	IC50 [nM]
CC[C@@H](Nc1nc(NCc2cccnc2)c2ncn(C(C)C)c2n1)C(C)(C)O [Compound 5]	15900
CCNc1nc(C)c(-c2ccnc(Nc3ccc(S(C)(=O)=O)cc3)n2)s1 [Compound 10]	1490
CCNc1nc(C)c(-c2ccnc(Nc3ccc(CNC(C)=O)cc3)n2)s1 [Compound 9]	2000
Cc1c(-c2ccnc(Nc3ccc(N4CCNCC4)cc3)n2)sc(=O)n1C [Compound 7]	4950

molecular target: CDK2A (Homo sapiens, UniProt P24941); assay: In-house kinase assay (32P incorporation); assay type: biochemical; details: in-house kinase assays
Description: as §1

SMILES	IC50 [nM]
CC[C@@H](Nc1nc(NCc2cccnc2)c2ncn(C(C)C)c2n1)C(C)(C)O [Compound 5]	1240
CCNc1nc(C)c(-c2ccnc(Nc3ccc(S(C)(=O)=O)cc3)n2)s1 [Compound 10]	115
CCNc1nc(C)c(-c2ccnc(Nc3ccc(CNC(C)=O)cc3)n2)s1 [Compound 9]	1670
Cc1c(-c2ccnc(Nc3ccc(N4CCNCC4)cc3)n2)sc(=O)n1C [Compound 7]	223

molecular target: CDK2E (Homo sapiens, UniProt P24941); assay: In-house kinase assay (32P incorporation); assay type: biochemical; details: in-house kinase assays
Description: as §1

SMILES	IC50 [nM]
CC[C@@H](Nc1nc(NCc2cccnc2)c2ncn(C(C)C)c2n1)C(C)(C)O [Compound 5]	931
CCNc1nc(C)c(-c2ccnc(Nc3ccc(S(C)(=O)=O)cc3)n2)s1 [Compound 10]	13
CCNc1nc(C)c(-c2ccnc(Nc3ccc(CNC(C)=O)cc3)n2)s1 [Compound 9]	204
Cc1c(-c2ccnc(Nc3ccc(N4CCNCC4)cc3)n2)sc(=O)n1C [Compound 7]	71

molecular target: CDK4D1 (Homo sapiens, UniProt P11802); assay: In-house kinase assay (32P incorporation); assay type: biochemical; details: in-house kinase assays
Sequence (P11802 whole entry): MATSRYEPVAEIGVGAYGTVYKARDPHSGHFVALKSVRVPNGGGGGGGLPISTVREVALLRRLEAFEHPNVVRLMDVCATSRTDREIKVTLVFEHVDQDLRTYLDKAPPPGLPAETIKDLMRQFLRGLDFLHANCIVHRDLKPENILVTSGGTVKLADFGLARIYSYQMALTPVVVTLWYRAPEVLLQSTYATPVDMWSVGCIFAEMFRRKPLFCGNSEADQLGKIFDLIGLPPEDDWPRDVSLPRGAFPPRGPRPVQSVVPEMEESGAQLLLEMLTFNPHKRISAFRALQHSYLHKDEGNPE
Sequence (P24385 whole entry partner): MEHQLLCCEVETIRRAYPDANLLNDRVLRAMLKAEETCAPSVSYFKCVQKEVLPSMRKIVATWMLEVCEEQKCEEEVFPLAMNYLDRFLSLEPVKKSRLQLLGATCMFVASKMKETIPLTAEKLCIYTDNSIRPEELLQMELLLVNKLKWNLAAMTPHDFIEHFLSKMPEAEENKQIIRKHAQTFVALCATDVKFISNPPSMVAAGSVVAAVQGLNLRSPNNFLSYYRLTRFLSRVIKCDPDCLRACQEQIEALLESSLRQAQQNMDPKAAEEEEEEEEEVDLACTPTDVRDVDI
Description: as §1

SMILES	IC50 [nM]
CC[C@@H](Nc1nc(NCc2cccnc2)c2ncn(C(C)C)c2n1)C(C)(C)O [Compound 5]	2750
CCNc1nc(C)c(-c2ccnc(Nc3ccc(S(C)(=O)=O)cc3)n2)s1 [Compound 10]	5100
CCNc1nc(C)c(-c2ccnc(Nc3ccc(CNC(C)=O)cc3)n2)s1 [Compound 9]	118
Cc1c(-c2ccnc(Nc3ccc(N4CCNCC4)cc3)n2)sc(=O)n1C [Compound 7]	7630

molecular target: CDK6D3 (Homo sapiens, UniProt Q00534); assay: In-house kinase assay (32P incorporation); assay type: biochemical; details: in-house kinase assays
Sequence (Q00534 whole entry): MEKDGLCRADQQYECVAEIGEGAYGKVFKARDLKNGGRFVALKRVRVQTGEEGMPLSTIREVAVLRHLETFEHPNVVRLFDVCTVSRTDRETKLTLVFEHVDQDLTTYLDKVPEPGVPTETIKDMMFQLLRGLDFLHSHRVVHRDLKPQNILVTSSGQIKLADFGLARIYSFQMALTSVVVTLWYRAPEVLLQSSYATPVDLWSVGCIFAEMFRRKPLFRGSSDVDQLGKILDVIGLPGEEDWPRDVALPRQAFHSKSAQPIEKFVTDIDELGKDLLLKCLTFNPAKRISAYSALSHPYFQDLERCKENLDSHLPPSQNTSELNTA
Sequence (P30281 whole entry partner): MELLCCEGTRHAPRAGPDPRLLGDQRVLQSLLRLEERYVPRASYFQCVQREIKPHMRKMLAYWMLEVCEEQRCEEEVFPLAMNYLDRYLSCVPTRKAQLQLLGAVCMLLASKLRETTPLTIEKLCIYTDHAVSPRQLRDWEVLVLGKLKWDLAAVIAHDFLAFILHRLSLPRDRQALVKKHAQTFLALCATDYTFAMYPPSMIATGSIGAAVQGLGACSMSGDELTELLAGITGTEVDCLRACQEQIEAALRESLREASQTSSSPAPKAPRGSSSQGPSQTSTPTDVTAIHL
Description: as §1

SMILES	IC50 [nM]
CC[C@@H](Nc1nc(NCc2cccnc2)c2ncn(C(C)C)c2n1)C(C)(C)O [Compound 5]	1940
CCNc1nc(C)c(-c2ccnc(Nc3ccc(S(C)(=O)=O)cc3)n2)s1 [Compound 10]	6400
CCNc1nc(C)c(-c2ccnc(Nc3ccc(CNC(C)=O)cc3)n2)s1 [Compound 9]	110
Cc1c(-c2ccnc(Nc3ccc(N4CCNCC4)cc3)n2)sc(=O)n1C [Compound 7]	6270

molecular target: CDK7/cyclin H (Homo sapiens, UniProt P50613); assay: CDK 7 and 9 assay (CTD peptide substrate); assay type: biochemical; details: in-house kinase assays; read-out: Average IC50 CDK7H
Sequence (P50613 whole entry): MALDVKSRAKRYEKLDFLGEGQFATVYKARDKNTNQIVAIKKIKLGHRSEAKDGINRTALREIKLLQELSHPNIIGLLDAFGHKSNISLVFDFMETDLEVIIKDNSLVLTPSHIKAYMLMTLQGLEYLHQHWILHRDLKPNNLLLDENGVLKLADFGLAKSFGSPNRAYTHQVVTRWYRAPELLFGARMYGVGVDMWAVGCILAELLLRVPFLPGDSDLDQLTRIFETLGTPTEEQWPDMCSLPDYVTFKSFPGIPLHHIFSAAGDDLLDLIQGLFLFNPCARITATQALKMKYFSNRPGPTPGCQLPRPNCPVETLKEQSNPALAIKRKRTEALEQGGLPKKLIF
Sequence (P51946 whole entry partner): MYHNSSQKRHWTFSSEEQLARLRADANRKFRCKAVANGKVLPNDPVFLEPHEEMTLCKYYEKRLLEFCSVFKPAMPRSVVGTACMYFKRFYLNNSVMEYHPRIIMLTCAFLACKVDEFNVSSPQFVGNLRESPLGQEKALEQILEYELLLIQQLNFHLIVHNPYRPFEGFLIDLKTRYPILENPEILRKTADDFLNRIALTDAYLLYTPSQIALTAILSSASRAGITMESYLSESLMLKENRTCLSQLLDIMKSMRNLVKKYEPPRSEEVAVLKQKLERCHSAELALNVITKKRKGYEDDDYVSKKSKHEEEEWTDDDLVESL
Description: as §1
(§2) The reaction was stopped by placing the plate on ice for 2 min. Avidin (50 μg) was added to each well, and the plate was incubated at room temp for 30 min. The samples were transferred to a 96-well P81 filter plate, and washed (4×200 μL per well) with 75 mM phosphoric acid. Microscint 40 scintillation liquid (50 μL) was added to each well, and the amount of ^32P incorporation for each sample was measured using a Packard Topcount microplate scintillation counter.

SMILES	IC50 [nM]
CC[C@@H](Nc1nc(NCc2cccnc2)c2ncn(C(C)C)c2n1)C(C)(C)O [Compound 5]	27000
Cn1cnc2c(NCc3ccccc3)nc(NCCO)nc21 [Compound 3]	> 20000
CCNc1nc(C)c(-c2ccnc(Nc3ccc(S(C)(=O)=O)cc3)n2)s1 [Compound 10]	455
CCNc1nc(C)c(-c2ccnc(Nc3ccc(CNC(C)=O)cc3)n2)s1 [Compound 9]	147
Cc1c(-c2ccnc(Nc3ccc(N4CCNCC4)cc3)n2)sc(=O)n1C [Compound 7]	983

molecular target: CDK9/cyclin T1 (Homo sapiens, UniProt P50750); assay: CDK 7 and 9 assay (CTD peptide substrate); assay type: biochemical; details: in-house kinase assays; read-out: Average IC50 CDK9T1
Sequence (P50750 whole entry): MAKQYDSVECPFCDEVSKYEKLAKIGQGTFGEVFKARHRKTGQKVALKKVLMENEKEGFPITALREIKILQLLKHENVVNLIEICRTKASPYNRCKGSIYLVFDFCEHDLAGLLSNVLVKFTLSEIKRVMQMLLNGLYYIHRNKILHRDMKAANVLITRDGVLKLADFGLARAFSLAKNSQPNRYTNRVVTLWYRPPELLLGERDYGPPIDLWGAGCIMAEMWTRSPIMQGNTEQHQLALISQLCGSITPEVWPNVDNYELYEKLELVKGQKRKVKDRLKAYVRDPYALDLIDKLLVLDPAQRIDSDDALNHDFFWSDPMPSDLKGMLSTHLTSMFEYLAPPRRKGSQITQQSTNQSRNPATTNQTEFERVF
Sequence (O60563 whole entry partner): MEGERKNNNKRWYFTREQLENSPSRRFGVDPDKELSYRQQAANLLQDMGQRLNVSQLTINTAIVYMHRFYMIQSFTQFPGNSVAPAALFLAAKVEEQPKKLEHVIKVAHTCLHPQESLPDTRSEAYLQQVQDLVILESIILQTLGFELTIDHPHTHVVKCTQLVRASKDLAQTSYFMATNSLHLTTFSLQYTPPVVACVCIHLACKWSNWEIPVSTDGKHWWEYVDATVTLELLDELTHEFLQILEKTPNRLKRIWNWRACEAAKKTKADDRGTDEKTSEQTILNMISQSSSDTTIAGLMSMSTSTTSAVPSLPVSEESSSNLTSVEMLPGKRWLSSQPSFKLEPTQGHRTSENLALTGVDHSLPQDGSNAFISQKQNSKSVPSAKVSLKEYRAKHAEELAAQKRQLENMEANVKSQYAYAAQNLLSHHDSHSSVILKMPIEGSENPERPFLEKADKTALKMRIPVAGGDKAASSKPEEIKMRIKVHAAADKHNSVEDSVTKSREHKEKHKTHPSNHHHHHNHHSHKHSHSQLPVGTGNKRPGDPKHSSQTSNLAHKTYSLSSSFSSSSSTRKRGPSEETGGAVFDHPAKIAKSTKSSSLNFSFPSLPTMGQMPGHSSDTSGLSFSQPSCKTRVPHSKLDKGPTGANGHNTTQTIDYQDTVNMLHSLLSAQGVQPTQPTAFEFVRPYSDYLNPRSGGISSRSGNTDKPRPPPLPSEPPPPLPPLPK
Description: as §1, §2

SMILES	IC50 [nM]
CC[C@@H](Nc1nc(NCc2cccnc2)c2ncn(C(C)C)c2n1)C(C)(C)O [Compound 5]	2710
CCNc1nc(C)c(-c2ccnc(Nc3ccc(S(C)(=O)=O)cc3)n2)s1 [Compound 10]	81
CCNc1nc(C)c(-c2ccnc(Nc3ccc(CNC(C)=O)cc3)n2)s1 [Compound 9]	97
Cc1c(-c2ccnc(Nc3ccc(N4CCNCC4)cc3)n2)sc(=O)n1C [Compound 7]	195

tested on: tumour cell panels; assay: In-house 72 hour cytotoxicity assays on tumour cell panels; assay type: cell-based; details: 72 h; read-out: IC50 Average

SMILES	IC50 [nM]
CC[C@@H](Nc1nc(NCc2cccnc2)c2ncn(C(C)C)c2n1)C(C)(C)O [Compound 5]	1430
CCNc1nc(C)c(-c2ccnc(Nc3ccc(S(C)(=O)=O)cc3)n2)s1 [Compound 10]	753
CCNc1nc(C)c(-c2ccnc(Nc3ccc(CNC(C)=O)cc3)n2)s1 [Compound 9]	250
Cc1c(-c2ccnc(Nc3ccc(N4CCNCC4)cc3)n2)sc(=O)n1C [Compound 7]	5310

same assay, conditions: rounded IC50 value used for ease of calculation in PBMC assays; read-out: IC50 Used

SMILES	IC50 [nM]
CC[C@@H](Nc1nc(NCc2cccnc2)c2ncn(C(C)C)c2n1)C(C)(C)O [Compound 5]	1500
CCNc1nc(C)c(-c2ccnc(Nc3ccc(S(C)(=O)=O)cc3)n2)s1 [Compound 10]	1000
CCNc1nc(C)c(-c2ccnc(Nc3ccc(CNC(C)=O)cc3)n2)s1 [Compound 9]	250
Cc1c(-c2ccnc(Nc3ccc(N4CCNCC4)cc3)n2)sc(=O)n1C [Compound 7]	5000

tested on: stimulated PBMCs; assay: T cell proliferation assay (BrdU ELISA in stimulated PBMCs); assay type: cell-based; details: Example 3; PHA stimulated PBMCs; compounds at IC50 to 4×IC50; 48 hours after stimulation
Description: PBMCs were seeded in 96 well plates at 1×10^5 cells/well, in 50 μL per well culture medium. […] All stimulants and compounds were made up to 4× final concentration in tissue culture medium and 25 μL of each drug and stimulant was then added to wells, for a final volume of 100 μL/well. For unstimulated controls, 25 μL tissue culture medium was added to wells instead of stimulant and for untreated cells, 25 μL/well tissue culture medium containing equal volume DMSO (0.1% final) was added. Three adjacent wells were treated for each stimulation/treatment condition and the mean value calculated for analysis.
In addition, PBMCs were stimulated with ConA (Concanavalin A, Sigma C5275) at concentrations ranging from 0.5 μg/mL to 100 μg/mL to identify its stimulatory effect and optimal concentration.
Cells were labelled with BrdU for two hours prior to harvesting. Plates were then centrifuged for 10 minutes at 300 g (RT), supernatant removed from wells by pipetting and cells dried for 1 hour at 60° C. FixDenat solution was added to plates (100 μL/well) and incubated for 30 minutes, then flicked to remove and anti-BrdU-POD solution added to plates (100 μL/well) and incubated for 90 minutes.

SMILES	BrdU incorporation
CCNc1nc(C)c(-c2ccnc(Nc3ccc(S(C)(=O)=O)cc3)n2)s1 [Compound 10]	clearly concentration dependent
CCNc1nc(C)c(-c2ccnc(Nc3ccc(CNC(C)=O)cc3)n2)s1 [Compound 9]	clearly concentration dependent

same assay, conditions: Example 3; PMA/I stimulated PBMCs; all concentrations

SMILES	BrdU incorporation
CCNc1nc(C)c(-c2ccnc(Nc3ccc(S(C)(=O)=O)cc3)n2)s1 [Compound 10]	higher than in PHA stimulated cells
CCNc1nc(C)c(-c2ccnc(Nc3ccc(CNC(C)=O)cc3)n2)s1 [Compound 9]	higher than in PHA stimulated cells

same assay, conditions: Example 4; PHA or ConA stimulated PBMCs

SMILES	Concentration reaching complete inhibition of proliferation activity [×IC50]
Cc1c(-c2ccnc(Nc3ccc(N4CCNCC4)cc3)n2)sc(=O)n1C [Compound 7]	0.25

same assay, conditions: Example 4; PHA or ConA stimulated PBMCs; 0.25×IC50 to 4×IC50; 48 and 72 hours

SMILES	BrdU incorporation
CCNc1nc(C)c(-c2ccnc(Nc3ccc(S(C)(=O)=O)cc3)n2)s1 [Compound 10]	concentration dependency was clearly seen; also recorded: needed at higher concentrations than the other compounds
CCNc1nc(C)c(-c2ccnc(Nc3ccc(CNC(C)=O)cc3)n2)s1 [Compound 9]	concentration dependency was clearly seen; also recorded: needed at higher concentrations than the other compounds

tested on: HCT116 cells; assay: not given; details: published for HCT116 cells, Raynaud et al. 2005; no in-house data; read-out: IC50 Average; cited from earlier work

SMILES	IC50 [nM]
Cn1cnc2c(NCc3ccccc3)nc(NCCO)nc21 [Compound 3]	56000

same assay, conditions: rounded from published HCT116 IC50; used in PBMC assays; read-out: IC50 Used; cited from earlier work

SMILES	IC50 [nM]
Cn1cnc2c(NCc3ccccc3)nc(NCCO)nc21 [Compound 3]	50000
